# Laboratory results: US20190105367A1, “ANTIMICROBIAL 4-OXOQUINOLIZINES” (Emergent Product Development Gaithersburg Inc., priority 2011, published 2019)
# Read-outs that look alike come from different tables or passages of the source.
# What was measured:
# [1] = system: A. baumannii NCTC 13301; assay: MIC without and with sub-inhibitory polymyxin B (Example 4); assay type: cell-based, Acinetobacter baumannii; details: +[…] PB, 2nd experiment
# [2] = system: A. baumannii A489; assay: as above; assay type: cell-based, Acinetobacter baumannii; details: for MIC without PB/MIC + PB: A. baumannii A489; for MIC: Acinetobacter baumannii
# [3] = system: A. baumannii ATCC 19606; assay: as above; assay type: cell-based, Acinetobacter baumannii; details: for MIC without PB/MIC + PB: A. baumannii ATCC 19606; for MIC: Acinetobacter baumannii
# [4] = system: A. baumannii A387; assay: Preliminary MBC without and with sub-inhibitory polymyxin B (Example 4); assay type: cell-based, Acinetobacter baumannii; details: Acinetobacter baumannii
# [5] = system: strains of A. baumannii and one strain of Acinetobacter sp.; assay: MIC with sub-inhibitory concentrations (0.25x MIC) of polymyxin B, panel of Acinetobacter strains (Example 4); assay type: cell-based
# [6] = system: A. baumannii A473; assay: MIC without and with sub-inhibitory polymyxin B (Example 4); assay type: cell-based, Acinetobacter baumannii; details: +0.06 μg/ml PB, 2nd experiment
# [7] = system: A. baumannii A390; assay: as above; assay type: cell-based, Acinetobacter baumannii; details: +0.06 μg/ml PB, 2nd experiment
# [8] = system: A. baumannii J2; assay: as above; assay type: cell-based, Acinetobacter baumannii; details: for MIC without PB/MIC + PB: A. baumannii J2; for MIC: Acinetobacter baumannii
# [9] = system: A. baumannii A14; assay: as above; assay type: cell-based, Acinetobacter baumannii; details: 1st experiment
# [10] = system: A. baumannii A472; assay: as above; assay type: cell-based, Acinetobacter baumannii; details: for MIC: Acinetobacter baumannii
# [11] = system: Acinetobacter sp. (H064200250); assay: as above; assay type: cell-based; details: for MIC: Acinetobacter
# [12] = system: A. baumannii A329; assay: Preliminary MBC without and with sub-inhibitory polymyxin B (Example 4); assay type: cell-based, Acinetobacter baumannii; details: Acinetobacter baumannii, A329, A. baumannii A329, +0.06 μg/ml PB, 2nd experiment, read-out: MBC
# [13] = system: A. baumannii A401; assay: MIC without and with sub-inhibitory polymyxin B (Example 4); assay type: cell-based, Acinetobacter baumannii; details: for MIC: Acinetobacter baumannii
# [14] = system: A. baumannii A472; assay: Preliminary MBC without and with sub-inhibitory polymyxin B (Example 4); assay type: cell-based, Acinetobacter baumannii; details: Acinetobacter baumannii, preliminary MBC
# [15] = system: A. baumannii A401; assay: as above; assay type: cell-based, Acinetobacter baumannii; details: Acinetobacter baumannii
# [16] = system: A. baumannii A329; assay: MIC without and with sub-inhibitory polymyxin B (Example 4); assay type: cell-based, Acinetobacter baumannii; details: A. baumannii A329; +0.06 μg/ml PB; 2nd experiment
# [17] = system: A. baumannii NCTC 13301; assay: as above; assay type: cell-based, Acinetobacter baumannii
# [18] = system: A. baumannii J2; assay: Preliminary MBC without and with sub-inhibitory polymyxin B (Example 4); assay type: cell-based, Acinetobacter baumannii; details: Acinetobacter baumannii, preliminary MBC
# [19] = system: A. baumannii A14; assay: MIC without and with sub-inhibitory polymyxin B (Example 4); assay type: cell-based, Acinetobacter baumannii; details: 2nd experiment
# [20] = system: A. baumannii A390; assay: Preliminary MBC without and with sub-inhibitory polymyxin B (Example 4); assay type: cell-based, Acinetobacter baumannii; details: Acinetobacter baumannii, A390, A. baumannii A390, +0.06 μg/ml PB, 2nd experiment, read-out: MBC
# Procedure, shortened: (§1)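 Read-out: the minimum concentration at which colonies were reduced by ca. 90% relative to positive control, usually seen as isolated colonies or a clear plate. Plates had been kept 18-20 hours at 37° C beforehand.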
# [21] = system: A. baumannii A473; assay: as above; assay type: cell-based, Acinetobacter baumannii; details: Acinetobacter baumannii, A473, A. baumannii A473, +0.06 μg/ml PB, 2nd experiment, read-out: MBC
# Procedure, shortened: as §1
# [22] = system: A. baumannii A14; assay: as above; assay type: cell-based, Acinetobacter baumannii; details: 2nd experiment
# Procedure, shortened: as §1
# [23] = system: A. baumannii NCTC 13301; assay: as above; assay type: cell-based, Acinetobacter baumannii; details: Acinetobacter baumannii
# Procedure, shortened: as §1
# [24] = system: A. baumannii A387; assay: MIC without and with sub-inhibitory polymyxin B (Example 4); assay type: cell-based, Acinetobacter baumannii; details: for MIC without PB/MIC + PB: A. baumannii A387
# [25] = ratio, PB 0.06 μg/ml, 1st experiment
# [26] = A. baumannii A14, +0.06 μg/ml PB
smiles,measurement,setting,value
"Cc1c(-c2cc(Cl)c(N)c(Cl)c2)ccn2c(=O)c(C(=O)O)cc(C3CC3)c12 [Compound 3, 8-(3,5-dichloro-4-amino-phenyl)-1-cyclopropyl-9-methyl-4-oxo-quinolizine-3-carboxylic acid]",MIC without PB/MIC + PB,[1]; A. baumannii NCTC 13301,≥1024
same,MIC,"[1]; Acinetobacter baumannii, NCTC13301, A. baumannii NCTC 13301, read-out: MIC",≤ 0.03 µg/mL
same,MIC without PB/MIC + PB,"[2]; +[…] PB, 2nd experiment",≥128
same,MIC without PB/MIC + PB,"[2]; ratio, PB […], 1st experiment",64
same,MIC,"[2]; A489, A. baumannii A489, +[…] PB, 2nd experiment, read-out: MIC",≤ 0.03 µg/mL
same,MIC,"[2]; A489, read-out: MIC +[…] PB, A. baumannii A489, +[…] polymyxin B, 1st experiment",0.06 µg/mL
same,MIC without PB/MIC + PB,"[3]; +0.06 μg/ml PB, 2nd experiment",≥8
same,MIC without PB/MIC + PB,[3]; [25],≥8
same,MIC,"[3]; ATCC19606, A. baumannii ATCC 19606, +0.06 μg/ml PB, 2nd experiment, read-out: MIC",≤ 0.03 µg/mL
same,MIC,"[3]; ATCC19606, read-out: MIC +0.06 μg/ml PB, A. baumannii ATCC 19606, +0.06 μg/ml polymyxin B, 1st experiment",≤ 0.03 µg/mL
same,MBC,"[4]; A387, A. baumannii A387, +0.06 μg/ml PB, 2nd experiment, read-out: MBC",≤ 0.03 µg/mL
same,MBC,"[4]; A387, read-out: MBC +0.06 μg/ml PB, A. baumannii A387, +0.06 μg/ml polymyxin B, 1st experiment",0.25 µg/mL
same,"MIC range with PB (0.25x MIC) Oct. 1, 2008 n = 8","[5]; 1st experiment, […] polymyxin B, ATCC 19606, A329, A390 and A473 not taken",≤0.03 to 1 µg/mL
same,"MIC range with PB (0.25x MIC) Oct. 14, 2008 n = 11","[5]; 2nd experiment, 0.06 μg/ml polymyxin B, all strains except the ATCC strain",≤0.03 to 0.5 µg/mL
same,MIC without PB/MIC + PB,[6]; A. baumannii A473,≥256
same,MIC,"[6]; Acinetobacter baumannii, A473, A. baumannii A473, read-out: MIC",≤ 0.03 µg/mL
same,MIC without PB/MIC + PB,[7]; A. baumannii A390,≥256
same,MIC,"[7]; Acinetobacter baumannii, A390, A. baumannii A390, read-out: MIC",0.125 µg/mL
same,MIC without PB/MIC + PB,"[8]; +[…] PB, 2nd experiment",≥1024
same,MIC without PB/MIC + PB,"[8]; ratio, PB […], 1st experiment",64
same,MIC,"[8]; J2, A. baumannii J2, +[…] PB, 2nd experiment, read-out: MIC",≤ 0.03 µg/mL
same,MIC,"[8]; J2, read-out: MIC +[…] PB, A. baumannii J2, +[…] polymyxin B, 1st experiment",0.125 µg/mL
same,MIC +0.06 μg/ml PB,[9]; +0.06 μg/ml polymyxin B,1 µg/mL
same,MIC,"[9]; Acinetobacter baumannii, 24 h, without polymyxin B, read-out: MIC without PB",> 32 µg/mL
same,MIC without PB/MIC + PB,"[9]; ratio, PB 0.06 μg/ml",≥32
same,MIC without PB/MIC + PB,"[10]; A. baumannii A472, ratio, PB […], 1st experiment",64
same,MIC,"[10]; A472, A. baumannii A472, +[…] PB, 2nd experiment, read-out: MIC",≤ 0.03 µg/mL
same,MIC,"[10]; A472, read-out: MIC +[…] PB, A. baumannii A472, +[…] polymyxin B, 1st experiment",0.5 µg/mL
same,MIC without PB/MIC + PB,"[11]; Acinetobacter spp. H064200250 (OXA51), +[…] PB, 2nd experiment",256
same,MIC without PB/MIC + PB,"[11]; Acinetobacter spp. H064200250, ratio, PB […], 1st experiment",16
same,MIC,"[11]; Acinetobacter spp. H064200250 (OXA51), +[…] PB, 2nd experiment, read-out: MIC",0.06 µg/mL
same,MIC,"[11]; read-out: MIC +[…] PB, Acinetobacter spp. H064200250, +[…] polymyxin B, 1st experiment",0.5 µg/mL
same,MBC,[12],0.25 µg/mL
same,MIC without PB/MIC + PB,"[13]; A baumannii A 401, ratio, PB 0.06 μg/ml, 1st experiment",64
same,MIC,"[13]; A401, A baumannii A 401, +0.06 μg/ml PB, 2nd experiment, read-out: MIC",0.125 µg/mL
same,MIC,"[13]; A401, read-out: MIC +0.06 μg/ml PB, A baumannii A 401, +0.06 μg/ml polymyxin B, 1st experiment",0.125 µg/mL
same,MBC,"[14]; A472, A. baumannii A472, +[…] PB, 2nd experiment, read-out: MBC",≤ 0.03 µg/mL
same,MBC,"[14]; A472, read-out: MBC +[…] PB, A. baumannii A472, +[…] polymyxin B, 1st experiment",0.25 µg/mL
same,MBC,"[15]; A401, A baumannii A 401, +0.06 μg/ml PB, 2nd experiment, read-out: MBC",0.125 µg/mL
same,MBC,"[15]; A401, read-out: MBC +0.06 μg/ml PB, A baumannii A 401, +0.06 μg/ml polymyxin B, 1st experiment",0.125 µg/mL
same,MIC without PB/MIC + PB,[16],32
same,MIC without PB/MIC + PB,"[17]; A. baumannii NCTC 13301, ratio, PB […], 1st experiment",≥64
same,MIC,"[17]; Acinetobacter baumannii, NCTC13301, read-out: MIC +[…] PB",0.5 µg/mL
same,MBC,"[18]; J2, A. baumannii J2, +[…] PB, 2nd experiment, read-out: MBC",≤ 0.03 µg/mL
same,MBC,"[18]; J2, read-out: MBC +[…] PB, A. baumannii J2, +[…] polymyxin B, 1st experiment",0.125 µg/mL
same,MIC,[19]; [26],0.125 µg/mL
same,MIC without PB/MIC + PB,[19]; [26],≥256
same,MIC,"[19]; Acinetobacter baumannii, A14, A. baumannii A14, without PB, read-out: MIC",> 32 µg/mL
same,MBC,[20],0.125 µg/mL
same,MBC,[21],0.06 µg/mL
same,MBC,[22]; [26],0.125 µg/mL
same,MBC,"[22]; Acinetobacter baumannii, A14, A. baumannii A14, without PB, read-out: MBC",> 32 µg/mL
same,MBC,"[23]; NCTC13301, A. baumannii NCTC 13301, +[…] PB, preliminary MBC, 2nd experiment, read-out: MBC",≤ 0.03 µg/mL
same,MBC,"[23]; NCTC13301, read-out: MBC +[…] PB",0.5 µg/mL
same,MIC without PB/MIC + PB,"[24]; +0.06 μg/ml PB, 2nd experiment",≥32
same,MIC without PB/MIC + PB,[24]; [25],≥32
same,MIC,"[24]; Acinetobacter baumannii, A387, read-out: MIC +0.06 μg/ml PB, A. baumannii A387, +0.06 μg/ml polymyxin B, 1st experiment",≤ 0.03 µg/mL
